Experimental data taken from ChEMBL document CHEMBL1201862, “PubChem BioAssay data set” (2004).
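All cell lines were grown in 96-well plates and treated with compound for 48 hours. GI50: concentration for 50% inhibition of growth.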 Calls of active or inactive are those of the source. Rule as the data show it: active = GI50 up to about 1.1 µM and inactive = higher.

Assays:
Experiment in all cases: inhibition of tumour cell growth, NCI panel, 48 h
M19-MEL = system: M19-MEL
COLO 205 = system: COLO 205
DLD-1 = system: DLD-1
A549 = system: A549
UACC-257 = system: UACC-257
EKVX = system: EKVX
TK-10 = system: TK-10
OVCAR-5 = system: OVCAR-5
HCT-116 = system: HCT-116
OVCAR-8 = system: OVCAR-8
SN12C = system: SN12C
SNB-19 = system: SNB-19
786-0 = system: 786-0
K562 = system: K562
SR = system: SR
IGROV-1 = system: IGROV-1

Measured: GI50

Cc1cc(-c2ccccc2)cc2[n+]1CC=C2.[O-][Cl+3]([O-])([O-])[O-]
inactive: M19-MEL > 100 µM | COLO 205 > 100 µM | DLD-1 58.5 µM | A549 > 100 µM | UACC-257 > 100 µM | EKVX 54.6 µM | TK-10 46.6 µM | OVCAR-5 > 100 µM | HCT-116 > 100 µM | OVCAR-8 > 100 µM | SN12C 95.5 µM | SNB-19 > 100 µM | 786-0 > 100 µM

O=C1CC2CCCC23CC2(CCN13)OCCO2 (stereo not drawn)
inactive: M19-MEL > 100 µM | COLO 205 > 100 µM | DLD-1 > 100 µM | A549 > 100 µM | UACC-257 > 100 µM | EKVX > 100 µM | TK-10 > 100 µM | OVCAR-5 > 100 µM | HCT-116 > 100 µM | K562 > 100 µM | OVCAR-8 > 100 µM | SR > 100 µM | IGROV-1 > 100 µM | SN12C > 100 µM | SNB-19 > 100 µM | 786-0 > 100 µM

CN(C)CCC(=O)/C=C\c1ccccc1
inactive: M19-MEL 19.7 µM | COLO 205 15.8 µM | DLD-1 15.8 µM | A549 21.6 µM | UACC-257 17.3 µM | EKVX 18.7 µM | TK-10 18.5 µM | OVCAR-5 20.9 µM | HCT-116 15.3 µM | K562 13.2 µM | OVCAR-8 18.1 µM | SR 15 µM | IGROV-1 24.5 µM | SN12C 16.6 µM | SNB-19 39.2 µM | 786-0 16.3 µM

COc1ccc(C(=O)C2=NON3OC23C(=O)c2ccc(OC)cc2)cc1 (stereo not drawn)
inactive: M19-MEL 16.5 µM | COLO 205 7.62 µM | DLD-1 7.28 µM | A549 22.4 µM | UACC-257 18.9 µM | EKVX 19.3 µM | TK-10 19.7 µM | OVCAR-5 20.7 µM | HCT-116 7.26 µM | K562 3.12 µM | OVCAR-8 8.77 µM | SR 2.56 µM | IGROV-1 11.6 µM | SN12C 15.3 µM | SNB-19 15.9 µM | 786-0 3.44 µM

CC(C)(CN1CCCCC1)C(=O)/C=C/c1ccc(Br)cc1
inactive: M19-MEL 14.8 µM | COLO 205 2.25 µM | DLD-1 3.01 µM | A549 2.86 µM | UACC-257 6.31 µM | EKVX 2.12 µM | TK-10 3.13 µM | OVCAR-5 2.78 µM | HCT-116 2.77 µM | K562 2.59 µM | OVCAR-8 2.39 µM | SR 2.45 µM | IGROV-1 2.79 µM | SN12C 2.57 µM | SNB-19 2.01 µM | 786-0 2.15 µM

O=C(/C=C/c1ccccc1O)c1ccccc1O
inactive: M19-MEL > 100 µM | COLO 205 > 100 µM | DLD-1 > 100 µM | A549 > 100 µM | UACC-257 > 100 µM | EKVX > 100 µM | TK-10 > 100 µM | OVCAR-5 > 100 µM | HCT-116 78 µM | K562 19.8 µM | OVCAR-8 > 100 µM | IGROV-1 > 100 µM | SN12C > 100 µM | SNB-19 > 100 µM | 786-0 > 100 µM

Cc1cc(C)c2[s+]snc2c1
inactive: M19-MEL > 100 µM | COLO 205 > 100 µM | DLD-1 > 100 µM | A549 95.1 µM | UACC-257 72.3 µM | EKVX > 100 µM | TK-10 > 100 µM | OVCAR-5 > 100 µM | HCT-116 39.3 µM | K562 27.7 µM | OVCAR-8 33.7 µM | SR 23.8 µM | IGROV-1 > 100 µM | SN12C 47.1 µM | SNB-19 > 100 µM | 786-0 > 100 µM

Cc1cc(Cl)cc2c1NC(=O)C2(O)CC(=O)c1ccc(F)cc1 (stereo not drawn)
inactive: M19-MEL 5.41 µM | COLO 205 24.8 µM | DLD-1 96.8 µM | A549 30.2 µM | UACC-257 37.3 µM | EKVX > 100 µM | TK-10 > 100 µM | OVCAR-5 > 100 µM | HCT-116 56.4 µM | OVCAR-8 80.7 µM | IGROV-1 58.9 µM | SN12C 27.2 µM | SNB-19 > 100 µM | 786-0 27 µM

CC(=O)O[C@H]1C(=O)[C@@]2(C)C(C(OC(=O)c3ccccc3)C3[C@@H](O)C(OC(=O)[C@@H](O)[C@H](NC(=O)c4ccccc4)c4ccc(C(F)(F)F)cc4)C(C)=C1C3(C)C)[C@]1(OC(C)=O)CO[C@@H]1C[C@@H]2O (stereo partly drawn)
inactive: M19-MEL > 25 µM | COLO 205 9.55 µM | DLD-1 > 25 µM | A549 17.9 µM | UACC-257 > 25 µM | EKVX > 25 µM | TK-10 > 25 µM | OVCAR-5 > 25 µM | HCT-116 9.1 µM | K562 12.4 µM | OVCAR-8 > 25 µM | SR 8.43 µM | IGROV-1 > 25 µM | SN12C > 25 µM | SNB-19 > 25 µM | 786-0 > 25 µM
